For orientation: share remaining means what is left of the initial amount, in per cent. Read a low share remaining as a greater loss.

Molecules are shown by their SMILES. Read-outs that look alike come from different tables or passages of the source.

These results are taken from patent US4755385A, “Oral pharmaceutical preparations containing 9-deoxo-11-deoxy-9,11-[imino[2-(2-methoxyethoxy)-ethylidene]-oxy]-(9S)-e rythromycin” (priority 1985, dated 1988).

The conditions of data set [1]: DE-A1-2,515,075; particularly when given dissolved, e.g. intravenously; cited from earlier work.
Data set [2] can be described thus: Stability of the active substance as a function of pH (% intact substance).

Take `CC[C@H]1OC(=O)[C@H](C)[C@@H](O[C@H]2C[C@@](C)(OC)[C@@H](O)[C@H](C)O2)[C@H](C)[C@@H](O[C@@H]2O[C@H](C)C[C@H](N(C)C)[C@H]2O)[C@](C)(O)C[C@@H](C)[C@@H]2NC(COCCOC)O[C@H]([C@H]2C)[C@]1(C)O` (stereo partly drawn) [AS-E 136, 9-deoxo-11-deoxy-9,11-[imino[2-(2-methoxyethoxy)-ethylidene]oxy]-(9S)-erythromycin]: in data set [1], the antibacterial activity entry is “particularly good antibacterial activity”. In addition, the “stability in acidic media / gastric juices” value in data set [2] (gastric juices (pH 1.0 to 2.0)) was “usually destroyed in a short time”. In addition, the fraction remaining at 0.5 h in data set [2] (pH 1) is 10%; in data set [2] (pH 6) it was 20%; in data set [2] (pH 6.5), 20%; in data set [2] (pH 7), 50%; in data set [2] (pH 7.5), 80%; in data set [2] (pH 8), 95%. In data set [2] (pH around 5.5), the “chemical stability around pH 5.5” value is “retains its susceptibility to hydrolysis unchanged”.

Consider `CC[C@H]1OC(=O)[C@H](C)[C@@H](O[C@H]2C[C@@](C)(OC)[C@@H](O)[C@H](C)O2)[C@H](C)[C@@H](O[C@@H]2O[C@H](C)C[C@H](N(C)C)[C@H]2O)[C@](C)(O)C[C@@H](C)C(=O)[C@H](C)[C@@H](O)[C@]1(C)O` [erythromycin, reference compound], for which the “chemical stability around pH 5.5” value is listed as “chemically stable long enough to be resorbed”. In data set [2] (pH 1.3), this compound came in with a share remaining at 0.5 h of 30% and an amount remaining at 1 h of 10%. Moreover, in data set [2] (pH 4.5), the amount remaining at 0.5 h is 55% and the share remaining at 1 h worked out at 50%. In data set [2] (pH 5.5), this compound came in with a fraction remaining at 0.5 h of 100% and an amount remaining at 1 h of 85%.
